# Source: US11013745B2, “Triazolopyrimidine, triazolopyridine compounds, and the composition thereof for treating PRC2-mediated diseases” (SHANGHAI INSTITUTE OF MATERIA MEDICA, CHINESE ACADEMY OF …, priority 2017, dated 2021)
# How the values were obtained:
# [1] = Liver microsomal stability (human); type: in vitro ADME
# Method in brief: (§1)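 Human, mouse and rat liver microsomes were incubated with NADPH and MgCl2 in 0.1 M Tris pH 7.4, with compound at a 0.2 μM working solution. Remaining compound was quantified by LC/MS over the incubation time. The slope of log remaining versus time gave Clint, which was scaled to predicted Cl, Clhep and % MF.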
# PRC2 enzyme = PRC2 enzyme (Homo sapiens (Human), UniProt O75530); assay: PRC2 enzyme activity, TR-FRET method; type: biochemical
# Method in brief: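 Enzyme preincubated with compound 30 min at room temperature; reaction started with biotin-labeled histone H3 peptide and SAM, run 4 h at room temperature.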
# Pfeiffer cells [2] = assay: Pfeiffer cell growth inhibition in a long term (11 days), CellTiter-Glo; type: cell-based, Human; conditions: Homo sapiens, 264 h, 11 days, read-out: Experiment on Pfeiffer cell growth inhibition in a long term (11 days IC50)
# Method in brief: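 Exponentially growing cells seeded at 1*10E5 cells/mL and treated the same day with a concentration range. Media and compound were refreshed at days 4 and 7. Viability was read by CellTiter-Glo after 11 days and GI50 values were derived.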
# [3] = Liver microsomal stability (rat); type: in vitro ADME
# Method in brief: as §1
# Karpas-422 cells = assay: Growth inhibition of Karpas-422 cells in a long term (11 days), CellTiter-Glo; type: cell-based, Human; conditions: Homo sapiens, 264 h; Karpas-422, 11 days; read-out: Karpas-422 (11 days) IC50
# Pfeiffer cells [4] = assay: Growth inhibition of Pfeiffer cells in a long term (14 days), CellTiter-Glo; type: cell-based, Human; conditions: Homo sapiens, 336 h, 14 days, read-out: Pfeiffer (14 days) IC50
# Method in brief: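 Pfeiffer DLBCL cells in RPMI 1640 with 10% FBS were treated for 14 days with a 9-point, three-fold compound series (final 0.003-20 μM or 0.3-2000 nM, 0.2% DMSO). Medium and compound were refreshed with cell dilution on days 4, 7 and 11. Viability was read by CellTiter-Glo luminescence, and IC50 values were calculated.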
# PRC2 enzyme, sequence (O75530 whole entry): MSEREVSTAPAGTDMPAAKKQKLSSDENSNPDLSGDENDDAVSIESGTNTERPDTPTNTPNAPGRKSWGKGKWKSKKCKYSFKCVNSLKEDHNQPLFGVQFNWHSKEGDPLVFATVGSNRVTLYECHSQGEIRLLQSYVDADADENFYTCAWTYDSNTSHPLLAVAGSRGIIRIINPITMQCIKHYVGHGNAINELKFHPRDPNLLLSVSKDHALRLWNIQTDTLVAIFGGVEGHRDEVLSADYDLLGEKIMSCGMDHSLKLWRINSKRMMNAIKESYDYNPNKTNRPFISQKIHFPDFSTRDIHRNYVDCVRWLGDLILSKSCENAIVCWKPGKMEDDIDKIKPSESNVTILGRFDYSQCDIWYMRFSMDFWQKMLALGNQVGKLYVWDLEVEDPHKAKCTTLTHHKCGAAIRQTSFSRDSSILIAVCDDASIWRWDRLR
# PRC2 enzyme, sequence (Q15910 whole entry partner): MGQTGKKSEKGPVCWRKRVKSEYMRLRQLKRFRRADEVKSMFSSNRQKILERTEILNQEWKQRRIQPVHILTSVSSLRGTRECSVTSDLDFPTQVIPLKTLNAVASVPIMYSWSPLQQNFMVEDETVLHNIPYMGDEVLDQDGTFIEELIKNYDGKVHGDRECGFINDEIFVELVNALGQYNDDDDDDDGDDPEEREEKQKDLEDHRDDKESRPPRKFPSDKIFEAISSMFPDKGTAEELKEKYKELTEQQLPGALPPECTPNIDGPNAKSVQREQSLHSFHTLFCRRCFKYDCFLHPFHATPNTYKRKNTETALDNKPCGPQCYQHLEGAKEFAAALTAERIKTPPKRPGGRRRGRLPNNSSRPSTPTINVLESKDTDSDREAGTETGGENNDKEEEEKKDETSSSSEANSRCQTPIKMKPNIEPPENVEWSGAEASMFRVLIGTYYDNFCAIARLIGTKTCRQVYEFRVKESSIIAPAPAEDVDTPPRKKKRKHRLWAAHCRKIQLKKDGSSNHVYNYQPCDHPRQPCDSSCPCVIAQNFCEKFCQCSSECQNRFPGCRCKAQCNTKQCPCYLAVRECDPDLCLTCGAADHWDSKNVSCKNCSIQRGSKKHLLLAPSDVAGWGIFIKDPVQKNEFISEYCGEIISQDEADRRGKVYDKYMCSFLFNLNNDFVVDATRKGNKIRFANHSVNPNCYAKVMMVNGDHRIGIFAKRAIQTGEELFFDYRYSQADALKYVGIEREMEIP
# PRC2 enzyme, sequence (Q15022 whole entry partner): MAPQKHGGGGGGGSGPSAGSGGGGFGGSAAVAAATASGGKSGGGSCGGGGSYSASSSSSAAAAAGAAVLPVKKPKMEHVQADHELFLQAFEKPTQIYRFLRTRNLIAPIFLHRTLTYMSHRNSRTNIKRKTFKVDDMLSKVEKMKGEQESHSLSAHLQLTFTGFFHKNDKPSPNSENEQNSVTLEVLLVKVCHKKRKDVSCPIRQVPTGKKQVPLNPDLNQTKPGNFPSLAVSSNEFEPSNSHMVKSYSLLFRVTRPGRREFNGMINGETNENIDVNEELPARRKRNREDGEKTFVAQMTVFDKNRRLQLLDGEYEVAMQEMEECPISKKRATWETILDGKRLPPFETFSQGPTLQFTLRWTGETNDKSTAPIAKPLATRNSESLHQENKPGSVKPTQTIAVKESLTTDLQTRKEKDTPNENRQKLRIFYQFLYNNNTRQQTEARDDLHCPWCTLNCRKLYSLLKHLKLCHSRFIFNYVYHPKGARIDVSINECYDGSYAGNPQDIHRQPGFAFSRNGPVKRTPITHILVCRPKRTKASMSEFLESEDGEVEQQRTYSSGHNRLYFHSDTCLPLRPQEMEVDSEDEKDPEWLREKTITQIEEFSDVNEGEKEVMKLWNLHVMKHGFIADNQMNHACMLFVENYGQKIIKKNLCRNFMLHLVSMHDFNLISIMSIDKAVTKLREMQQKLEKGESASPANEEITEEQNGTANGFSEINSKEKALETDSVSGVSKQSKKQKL
smiles,measurement,setting,value
CS(=O)(=O)N1CC=C(c2cnc(NCc3c(F)ccc4c3CCO4)n3cnnc23)CC1 [E-Y13],Clearance rate in vivo Clint In Vivo Extpl,[1]; human liver microsomes,1732 mL/min
same,Intrinsic clearance rate in vivo Clint In Vitro,[1]; human liver microsomes,22.6 mL/min/gprot
same,Liver clearance rate Clint Hep In Vivo Extpl,[1]; human liver microsomes,804 mL/min
same,half-life,"[1]; human, liver microsomes, pH 7.4, human liver microsomes, read-out: Half life T-half",1.55 h
same,bioavailability,"[1]; human, liver microsomes, pH 7.4, human liver microsomes, read-out: Metabolic bioavailability MF %",46.4%
same,IC50,PRC2 enzyme,19 nM
same,IC50,Pfeiffer cells [2],3.2 nM
same,Clearance rate in vivo Clint In Vivo Extpl,[3]; rat liver microsomes,15.9 mL/min
same,Intrinsic clearance rate in vivo Clint In Vitro,[3]; rat liver microsomes,35.2 mL/min/gprot
same,Liver clearance rate Clint Hep In Vivo Extpl,[3]; rat liver microsomes,8.85 mL/min
same,Metabolic bioavailability MF %,[3]; rat liver microsomes,53.9%
same,half-life,"[3]; rat, liver microsomes, pH 7.4, rat liver microsomes, read-out: Half life T-half",0.92 h
same,IC50,Karpas-422 cells,13 nM
same,IC50,Pfeiffer cells [4],1 nM
